Target: Bile salt export pump (Homo sapiens, UniProt O95342)
Type: ADME

| Structure (SMILES) | IC50 [µM] |
| --- | --- |
| CCCCC(=O)N(Cc1ccc(-c2ccccc2-c2nnn[nH]2)cc1)[C@H](C(=O)O)C(C)C | 31.1 |
| CNC(=O)Oc1ccc2c(c1)C1(C)CCN(C)C1N2C (configuration not stated) | > 1000 |
| O=C(O[C@H]1C[N+]2(CCCOc3ccccc3)CCC1CC2)C(O)(c1cccs1)c1cccs1 | 127 |
| O=C(CCCCC(=O)Nc1c(I)cc(I)c(C(=O)O)c1I)Nc1c(I)cc(I)c(C(=O)O)c1I | > 970 |
| N[C@H](Cc1cc(I)c(Oc2cc(I)c(O)c(I)c2)c(I)c1)C(=O)O | < 10 |
| CCCc1c2nc(C(=O)O)cc(C(F)(F)F)c2cc2c(=O)cc(C(=O)O)oc12 | 365 |
| CCCc1c2nc(C(=O)O)cc(Cl)c2cc2c(=O)cc(C(=O)O)oc12 | > 892 |
| CCCc1c2nc(C(=O)O)cc(O)c2cc2c(=O)cc(C(=O)O)oc12 | > 1000 |
| CCCc1c2nc(C(=O)O)cc(N(C)C(C)=O)c2cc2c(=O)cc(C(=O)O)oc12 | > 1000 |
| COc1ccc2c(c1OC)C(=O)OC2C1c2cc3c(cc2CCN1C)OCO3 (configuration not stated) | 65.6 |
| CC[C@@H](C(N)=O)N1CCCC1=O | > 1000 |
| COC1C(OC(=O)/C=C/C=C/C=C/C=C/C(=O)O)CCC2(CO2)C1C1(C)OC1CC=C(C)C (configuration not stated) | 25.6 |
| c1ccc2[nH]c(-c3nc4ccccc4[nH]3)nc2c1 | 31.3 |
| CN1CCC(OC(c2ccccc2)c2ccccc2)CC1 | 509 |
| C=CC1CN2CCC1CC2C(O)c1ccnc2ccccc12 (configuration not stated) | > 1000 |
| CCOC(=O)[C@H](CCc1ccccc1)N[C@@H](C)C(=O)N1Cc2ccccc2C[C@H]1C(=O)O | 15.5 |
| CCS(=O)(=O)c1ccc(-c2cc(Cl)ccc2OCC(=O)O)c(F)c1 | 168 |
| CN1CCN(c2ccccc2/C=C2/SCCN(c3ccc(Cl)c(Cl)c3)C2=O)CC1 | < 10 |
| O=C(NCC12CC3CC(CC(C3)C1)C2)c1cc(CN2CCNCC2)ccc1Cl | 124 |
| NCC1OC(OC2C(CO)OC(OC3C(O)C(N)CC(N)C3OC3OC(CN)C(O)C(O)C3N)C2O)C(N)C(O)C1O (configuration not stated) | > 1000 |
| Cc1ccc(OC(C)(C)[C@H]2OC[C@@H](C/C=C\CCC(=O)O)[C@@H](c3cccnc3)O2)c([N+](=O)[O-])c1 | < 10 |
| CNCC(O)c1cccc(O)c1 (configuration not stated) | > 1000 |
| C/C=C/C(=O)N(CC)c1ccccc1C | 110 |
| CO[C@H]1/C=C/O[C@@]2(C)Oc3c(C)c(O)c4c(O)c(c(/C=N/N5CCN(C)CC5)c(O)c4c3C2=O)NC(=O)/C(C)=C\C=C\[C@H](C)[C@H](O)[C@@H](C)[C@@H](O)[C@H](C)[C@H](OC(C)=O)[C@H]1C | < 10 |
| CO[C@H]1/C=C/O[C@@]2(C)Oc3c(C)c(O)c4c(c3C2=O)C2=NC3(CCN(CC(C)C)CC3)NC2=C(NC(=O)/C(C)=C\C=C\[C@H](C)[C@H](O)[C@@H](C)[C@@H](O)[C@H](C)[C@H](OC(C)=O)[C@H]1C)C4=O | < 10 |

| Structure (SMILES) | IC50 [µM] |
| --- | --- |
| CN[C@]1(C)[C@H]2CC[C@H](C2)C1(C)C | > 1000 |
| O=C(O)c1cc2cc(O)ccc2n1Cc1ccc(Cl)c(Cl)c1 | 49.8 |
| COc1ccc2c(c1OC)C(=O)OC2C1c2c(cc3c(c2OC)OCO3)CCN1C (configuration not stated) | 23.9 |
| CCCCCC(C)(O)/C=C/[C@@H]1[C@@H](C/C=C\CCCC(=O)O)[C@@H](O)C[C@H]1O (some centres not stated) | 329 |
| CCc1cc(CC)c2oc(C(=O)O)cc(=O)c2c1O | 112 |
| CS(=O)(=O)Oc1ccc(OCCc2ccc(C[C@H](SCCc3ccc(O)cc3)C(=O)O)cc2)cc1 | < 13.4 |
| Cc1ccc(NC(=O)c2cccc3c2oc2ccccc23)cc1NC(=O)c1cccc(OC2CCN(C(C)C)CC2)c1 | < 10 |
| O=CN(O)C(CCCc1ncccn1)CS(=O)(=O)N1CCN(c2ccc(F)cc2)CC1 (configuration not stated) | < 16.4 |
| Cc1cc2c(cc(C(=O)O)n2Cc2ccc(Cl)c(Cl)c2)o1 | 15.9 |
| CC(=O)NC[C@H]1CN(c2ccc(C(=O)c3cnc4ccc(Cl)cn34)cc2)C(=O)O1 | 27.6 |
| C[C@H](Oc1ccc(C(F)(F)F)cc1-c1ccc(S(C)(=O)=O)c(C(F)(F)F)c1)C(=O)O | 35.8 |
| COc1cc2c(Oc3ccc4[nH]c(C)cc4c3F)ncnc2cc1OCCCN1CCCCC1 | 22.7 |
| COc1ccnc(-c2cccc(C)c2[S+]([O-])c2nc3ccccc3[nH]2)c1 (configuration not stated) | < 10 |
| O=CN(O)C(CCc1ccccn1)CS(=O)(=O)N1CCN(c2ccc(Cl)cn2)CC1 (configuration not stated) | < 10 |
| CC(=O)Nc1ccccc1OC[C@@H](O)CNC1CCN(Cc2ccc(Cl)cc2)CC1 | 55.6 |
| COc1ccc(Nc2ccn(-c3ccccc3)n2)cc1 | 23 |
| CC1=C(C(=O)O)N2C(=O)[C@@H](NC(=O)C(N)C3=CCC=CC3)C2SC1 (some centres not stated) | > 1000 |
| CCC1C(=O)OCC1Cc1cncn1C (configuration not stated) | > 1000 |
| Cc1cc(Nc2nc(NCc3cc(-c4ccccn4)no3)ncc2Cl)[nH]n1 | < 10 |
| O=CN(O)C(CCc1ncccn1)CS(=O)(=O)N1CCN(c2ccc(Cl)cn2)CC1 (configuration not stated) | < 10 |
| COc1ccc2cc(C(C)CO)ccc2c1 (configuration not stated) | 97.6 to 98 |
| O=C(O)c1cc2scnc2n1Cc1ccc(Cl)c(Cl)c1 | 22.4 |
| CC(C)(C)C(=O)CN1CC2CN(CCCNc3ccc(C#N)cc3)CC(C1)O2 | 514 |
| CC(=O)Nc1ccccc1OC[C@@](C)(O)CNC1CCN(Cc2ccc(Cl)cc2)CC1 | 71.5 |
| Nc1nc(NCCN2CCOCC2)nc2nc(-c3ccco3)nn12 | > 1000 |

| Structure (SMILES) | IC50 [µM] |
| --- | --- |
| CCCCCCCC/C=C/CCCCCCCC(=O)OCC(COP(=O)(O)OCC[N+](C)(C)C)OC(=O)CCCCCCC/C=C/CCCCCCCC (configuration not stated) | < 16 |
| CC[C@H]1OC(=O)[C@H](C)[C@H](O[C@H]2C[C@@](C)(OC)[C@@H](O)[C@H](C)O2)[C@H](C)[C@@H](O[C@@H]2O[C@H](C)C[C@H](N(C)C)[C@H]2O)[C@](C)(O)C[C@@H](C)CN(C)[C@H](C)[C@H](O)[C@]1(C)O | > 1000 |
| O=CN(O)[C@@H](CCCc1ncccn1)CS(=O)(=O)N1CCN(c2ccc(Cl)cn2)CC1 | < 10 |
| COc1c(C(=O)O)n(Cc2ccc(Cl)c(Cl)c2)c2ccc(O)cc12 | 39.6 |
| CC(=O)NC[C@H]1CN(c2cc(F)c(C3=CCN(C(=O)CO)CC3)c(F)c2)C(=O)O1 | > 1000 |
| O=CN(O)C(CCc1ccccc1)CS(=O)(=O)N1CCN(c2ccc(Cl)cn2)CC1 (configuration not stated) | < 10 |
| C/C(=N\OC(C)(C)C(=O)O)c1csc(N)n1 | > 1000 |
| CC(=O)OCC(=O)C1(O)C(C)CC2C3CC(F)C4=CC(=O)C=CC4(C)C3C(O)CC21C (configuration not stated) | 33.6 |
| Cc1ccc(NC(=O)c2cccc(-c3ccco3)c2)cc1-n1cnc2ccc(N3CCN(C)CC3)cc2c1=O | < 10 |
| CC(=O)NC[C@H]1CN(c2ccc(-n3cnc(Br)c3)c(F)c2)C(=O)O1 | 349 |
| CN[C@H]1C(O[C@H]2C(OC3C(O)C(O)C(NC(=N)N)C(O)C3NC(=N)N)OC(C)[C@]2(O)C=O)O[C@H](CO)[C@@H](O)[C@@H]1O (some centres not stated) | > 1000 |
| C[C@H](CC(=O)Nc1c(Cl)ccc2nc(N3CC[C@H](N)C3)ccc12)c1ccccc1 | < 27 |
| CCCc1ccc(OCC(C)O)c2c(=O)cc(C(=O)O)oc12 (configuration not stated) | 271 |
| COc1ccc2c(c1)CC[C@@H]1[C@@H]2CC[C@@]2(C)[C@H]1CC[C@@]2(O)C#N | < 10 |
| CCCc1c(OCCCOc2ccc3c(=O)cc(CCC(=O)O)oc3c2CCC)ccc(C(C)=O)c1O | < 10 |
| Cc1cccc(C)c1NC(=O)[C@H]1CCCCN1C | > 1000 |
| CCCC(=O)c1cnc2c(OCC[S+](C)[O-])cccc2c1Nc1ccc(F)cc1C (configuration not stated) | < 10 |
| CC[C@H]1OC(=O)[C@H](C)[C@H](O[C@H]2C[C@@](C)(OC)[C@@H](O)[C@H](C)O2)[C@@H](C)[C@@H](O[C@@H]2O[C@H](C)C[C@H](N(C)C)[C@H]2O)[C@@](C)(OC)C[C@@H](C)C(=O)[C@H](C)[C@H](O)[C@]1(C)O | < 12.9 |
| O=C(O)c1cc2c(F)c(O)ccc2n1Cc1ccc(Cl)c(Cl)c1 | 19.3 |
| O=C(c1ccc(-c2ccncc2)cc1)N1CCN(S(=O)(=O)c2cc3cc(Cl)ccc3[nH]2)CC1 | < 10 |
| O=CN(O)C(CCc1ccccc1)CS(=O)(=O)N1CCN(c2ccc(F)cc2)CC1 (configuration not stated) | < 10 |
| CC(CCC(=O)O)C1CCC2C3C(=O)CC4CC(=O)CCC4(C)C3CC(=O)C12C (configuration not stated) | 202 |
| O=CN(O)C(CCCc1ncccn1)CS(=O)(=O)N1CCC(Oc2ccc(Cl)cn2)CC1 (configuration not stated) | < 10 |
| N[C@H]1CCN(c2ccc3c(C(=O)NCC4CCCCC4)c(Cl)ccc3n2)C1 | 107 |
| C[C@@](O)(C(=O)Nc1ccc(S(=O)(=O)c2ccc(NCCO)cc2)cc1Cl)C(F)(F)F | 27.4 |

| Structure (SMILES) | IC50 [µM] |
| --- | --- |
| CC(=O)Oc1c(C)cc(Nc2ccn(-c3ccccc3)n2)cc1C | < 10 |
| Cc1ccc(-n2c3c/c(=N\C(C)C)c(Nc4ccc(Cl)cc4)cc-3nc3ccccc32)cc1 | 135 |
| CC(=O)Oc1ccc2c(c1)cc(C(=O)O)n2Cc1ccc(Cl)c(Cl)c1 | 55.2 |
| CC(C)C(=O)N[C@@H](CS)C(=O)O | > 1000 |
| C[C@H]1C[C@@](O)(c2csc(Sc3ccc4c(c3)CC(=O)N4C)c2)CCO1 | < 10.9 |
| O=C(O)c1cc2cc(O)ccc2n1Cc1ccc(Cl)c(C(F)(F)F)c1 | 18.5 |
| COc1ccc(CC(N)C(=O)N[C@@H]2[C@@H](CO)OC(n3cnc4c(N(C)C)ncnc43)[C@@H]2O)cc1 (some centres not stated) | > 787 |
| Cc1cc(CCC(=O)O)cc(C)c1-c1nc2ccc(-c3nnc(Nc4cccc(Cl)c4)o3)cc2[nH]1 | < 10 |
| O=C(NO)C(CCc1ccccc1)CS(=O)(=O)N1CCN(c2ccc(F)cc2)CC1 (configuration not stated) | < 10 |
| Cc1nc2c3c(ccn2c1CO)CCC(c1ccccc1)O3 (configuration not stated) | < 10 |
| Bc1ccc(S(=O)(=O)N2CCN(C(=O)N3CCN(c4cc(C)ncn4)CC3)CC2)cc1 | < 10 |
| O=CN(O)C(CCc1cccnc1)CS(=O)(=O)N1CCC(Oc2ccc(Cl)cn2)CC1 (configuration not stated) | < 10 |
| O=C(O)c1cc2c(OCCCO)cccc2n1Cc1ccc(Cl)c(Cl)c1 | < 14 |
| O=CN(O)C(CCc1cccnc1)CS(=O)(=O)N1CCN(c2ccc(Cl)cn2)CC1 (configuration not stated) | < 10 |
| O=C(/C=C/c1c(C(=O)O)[nH]c2cc(Cl)cc(Cl)c12)Nc1ccccc1 | < 10 |
| CCOC(N)=O | > 1000 |
| CC(C)[C@H](O)C(=O)N[C@@H](C)C(=O)N[C@@H]1C(=O)N(C)CCc2ccccc21 | 472 |
| O=C(NCCc1ccccc1Cl)c1cc(-n2ncc(=O)[nH]c2=O)ccc1Cl | 34.4 |
| COc1cccc(N2C(N)=NC(N)=NC23CCCCC3)c1 | > 1000 |
| CCCCCCCCCCCCc1ccc(S(=O)(=O)Nc2nncs2)cc1 | 21 |
| N=c1nc(N2CCCCC2)cc(N)n1O | > 1000 |
| N[C@@H](Cc1ccc(N(CCCl)CCCl)cc1)C(=O)O | 93.7 |
